From publication PMC12573178, “Substrate-Guided Development of HDAC11-Selective Inhibitors Featuring α‑Amino Amide Zinc-Binding Groups” (ACS Omega, 2025)
Where “and” joins values, the source holds several entries; their conditions need not be identical. Equal entries are not always repeated. Entries after “also recorded” stand apart in the source; their conditions may differ. Where two headings read alike, the source gives them in different places. Each block holds one compound with its values, some of them ahead of it. Residues, ends and D or L forms follow the SMILES beside them. No end group written: not given here. ξ: configuration not given here. *: point of attachment. ξGly(tetradecyl) = CCCCCCCCCCCCCCC(N)C(=O)O; Myristoyl = CCCCCCCCCCCCCC(=O)*; X1 = CCCCCCCCCCCCCCC(S)C(=O)*

How the values were obtained:
HDAC11 [1] = target: T1, HDAC11 (Homo sapiens, UniProt Q96DB2); assay: HDAC11 inhibition, continuous fluorescence-based assay with fatty-acylated peptide substrate; format: biochemical; details: for IC50: substrate Ac-EALPK(11-Abz-Aun)KY(3-NO2)GG-NH2 20 µM, triplicate, read-out: IC50 against HDAC11; for IC50 increase compared to 28: HDAC11
T1 sequence (Q96DB2 1-347): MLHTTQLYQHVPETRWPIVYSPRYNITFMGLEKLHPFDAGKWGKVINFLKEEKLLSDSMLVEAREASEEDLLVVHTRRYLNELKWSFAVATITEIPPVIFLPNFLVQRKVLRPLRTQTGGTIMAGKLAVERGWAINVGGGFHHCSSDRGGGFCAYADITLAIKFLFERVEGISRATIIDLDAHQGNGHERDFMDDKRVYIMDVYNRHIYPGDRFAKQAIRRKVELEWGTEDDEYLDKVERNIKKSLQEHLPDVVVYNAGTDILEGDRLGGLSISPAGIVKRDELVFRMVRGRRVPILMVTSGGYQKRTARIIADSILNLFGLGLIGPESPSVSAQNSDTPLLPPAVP
Method: Inhibition of the enzymatic activity of HDACs was performed continuously for HDAC8, HDAC11, and SIRT2 and discontinuously for SIRT2, 3, and 6 using adequate substrates as described previously. , Experimental details are given in the Supporting Information.
A. HDAC and SIRT deacylase activity assays
Continuous in vitro HDAC inhibition assays
The inhibitors were tested using 384-well plates (GreinerONe). After 5 min of incubation of the inhibitors together with the respective enzymes (HDAC8 = 2 nM, HDAC11 = 20 nM, SIRT2 = 1 nM), the reactions were always started by the addition of substrate for the Zn2+-dependent HDAC and by the addition of NAD+ for SIRT2. The reactions were performed in either HDAC8 buffer (20 mM HEPES, 140 mM NaCl, 10 mM MgCl 2, 1 mM tris(2-carboxyethyl)phosphine (TCEP), and 0.2 mg/ml BSA, pH 7.4 adjusted with NaOH), HDAC11 buffer (20 mM HEPES, 70 µM TCEP and 2 mg/ml BSA, pH 7.4 adjusted with NaOH) or SIRT buffer (20 mM Tris, 150 mM NaCl, 5 mM MgCl2 and 2 mg/ml BSA pH 7.8 adjusted with HCl), respectively. The thiotrifluoracetylated substrate Abz-SRGGK(thio-TFA)FFRR-NH2 (50 µM) […]
Aun is N-(2-aminobenzoyl)-11-aminoundecanoyl, was used for HDAC11 and Ac-EALPKK(Myr)T-C(Fluorescein)-G-NH2 (40 nM) was used for SIRT2 1-3.
The fluorescence increase was followed for 1 h with two reads per min using a PerkinElmer Envision […]
The excitation wavelength for HDAC8 and 11 was 320 ± 8 nm and the […]
Positive (enzyme, substrate, DMSO, and buffer) and negative
(substrate, DMSO, and Buffer) controls were included in every measurement and were set as 100% and 0%, respectively. The measured values were normalized accordingly. All tests were performed in triplicates. The data were fitted using the GraphPad Prism8 software and kinetic values calculated through non-linear regression analysis. […]

HDAC11 [2] = target: T1, HDAC11; assay: Substrate assay: incubation with HDAC11, UPLC-MS analysis of cleavage product; format: biochemical; details: 50 μM compound, 10 or 100 nM HDAC11, 37 °C, 24 h
Method: Because acylated H3K9 peptides are known to be substrates of HDAC11, , it had to be analyzed if the presence of a substitution in close proximity to the hydrolyzable amide bond is sufficient to suppress the deacylation of the compound by HDAC11, thereby transforming a substrate into an inhibitor. Accordingly, 50 μM of the most promising compounds, specifically 2, 10, 17, and 18, were incubated in the presence of 10 or 100 nM of HDAC11 at 37 °C for 24 h, followed by UPLC–MS analysis. […] Consequently, compounds 17 and 18 were excluded from further analyses.
The peptides were incubated at 50 μM, together with 10 or 100 nM HDAC11 in HDAC11 buffer for 24 h at 37 °C. The solution was then analyzed using UPLC–MS.
F. UPLC-MS Data of the substrate test
In order to ascertain whether peptides 2, 10, 17 and 18 are possible substrates of HDAC11, 50 µM of the peptides were incubated with 100 nM HDAC11 for 24 hours at 37°C. Subsequently, a sample of the solutions was subjected to analysis using UPLC-MS. The presence of the double-charged peptide representing the expected cleavage product Ac-TARKSTG-NH2 of 2, 10, 17 and 18 with the m/z ratio of [M+2H]2+ (381.45) was taken as an indicator of a HDAC11-catalysed reaction. […]
exclusively HDAC11 in the assay buffer. No signal indicative for the product peptide was detected. […]
Absorbance at 220 nm is shown. […]

[3] = Stability in aqueous solution; format: physicochemical; details: 37 °C for 24 h
[4] = test system: global protein fatty acylation; design: method as in previous studies (number not given); details: treatment with pan-HDAC inhibitor; ref previous studies (number not given); cited from earlier work
HDAC11 [5] = target: T1, HDAC11; design: method as in not printed per compound; details: literature values, Figure 1; ref not printed per compound; read-out: IC50 as reported for HDAC11; cited from earlier work
HDAC11 [6] = target: T1, HDAC11; assay: Microscale thermophoresis (MST) binding; details: 20 nM 32, varying concentrations of HDAC11, 25 °C
Method: Microscale thermophoresis (MST) was performed using a Monolith NT.115 (Nanotemper) with standard capillaries (MO-K022). The reaction solution contained a dilution series (1:1) of 16 different concentrations of HDAC11 (0.48 nM to 16 μM) and 20 nM 32 in MST buffer (20 mM MOPS buffer (pH 7.4 adjusted with NaOH), 0.2 mg/mL BSA, and 70 μM TCEP) and 5% (v/v) DMSO. After 5 min of incubation, the samples were loaded into capillaries and measured at 25 °C with a Filter Nano-BLUE at an excitation power of 20% and an MST power of 40%. The resulting data were fitted by MO.Affinity Analysis software (Nanotemper) via MST curves and fluorescence signals.

HDAC11 [7] = target: T1, HDAC11; design: method as in number not given; details: myristoylated 12-mer peptide; ref number not given; read-out: KM value as substrate of HDAC11; cited from earlier work

Compound: CCCCCCCCCCSC[C@@H](N)C(=O)NCCCCC [Compound 27]
IC50 (HDAC11 [1]): 150 ± 10.7 nM

Compound: CCCCCCCCCCCCCCC(S)C(=O)NCCCC[C@H](NC(=O)[C@H](CCCNC(=N)N)NC(=O)[C@H](C)NC(=O)[C@@H](NC(C)=O)[C@@H](C)O)C(=O)N[C@@H](CO)C(=O)N[C@H](C(=O)NCC(N)=O)[C@@H](C)O (stereo partly shown) [Compound 2] (Ac-TARK(X1)STG-NH2; N-terminus and C-terminus assumed)
Substrate properties / hydrolysis by HDAC11 (HDAC11 [2]): no single recognisable peak is present at the expected time; also recorded: not able to hydrolyze
Stability in aqueous solution [3]: completely stable

Compound: O=C(CCCCCCC(=O)Nc1ccccc1)NO [Vorinostat (SAHA), vorinostat]
Global protein fatty acylation [4]: decrease in global protein fatty acylation

Compound: CCCCCCSC[C@@H](N)C(=O)NCCCCC [Compound 25]
IC50 (HDAC11 [1]): 904 ± 118 nM

Compound: C/C=C1\NC(=O)[C@H]2CSSCC/C=C/[C@H](CC(=O)N[C@H](C(C)C)C(=O)N2)OC(=O)[C@H](C(C)C)NC1=O [Romidepsin (FK-228), Romidepsin]
IC50 (HDAC11 [5]): 2700 nM

Compound: CCCCCOCCCCCNNC(=O)c1ccc(CNC(=O)c2ccccc2)cc1 [Compound B6]
IC50 (HDAC11 [5]): 51.1 nM

Compound: CCCCCCCCCCCCSC[C@@H](N)C(=O)NCCCC[C@H](NC(=O)[C@H](CCCCN)NC(=O)CCC(=O)NCCCOCCOCCOCCCNC(=O)c1ccc2c(c1)C(=O)OC21c2ccc(O)cc2Oc2cc(O)ccc21)C(N)=O [Compound 32]
IC50 (HDAC11 [1]): 537 nM
Kd (HDAC11 [6]): 271 nM and 270 nM

Compound: KQTARK(Myristoyl)STGGWW [H3K9(Myr)]
Km (HDAC11 [7]): 17.3 µM

Compound: CCCCCCCCCCCCSC[C@@H](N)C(=O)NCc1cn(C)nn1 [Compound 29]
IC50 increase compared to 28 (HDAC11 [1]): more than 10 fold

Now from value to compound, other results behind:

IC50 increase compared to 28 (HDAC11 [1]): more than 10 fold
Compound: CCCCCCCCCCCCSC[C@@H](N)C(=O)N1Cc2ccccc2C1 [Compound 30]

IC50 (HDAC11 [1]): 56.1 ± 6 nM
Compound: CCCCCCCCCCCCSC[C@@H](N)C(=O)NCCCCC [Compound 28]

IC50 (HDAC11 [1]): 399 ± 60 nM
Compound: CCCCCCCCSC[C@@H](N)C(=O)NCCCCC [Compound 26]

Stability in aqueous solution [3]: completely stable
Compound: CCCCCCCCCCCCCCC(N)C(=O)NCCCC[C@H](NC(=O)[C@H](CCCNC(=N)N)NC(=O)[C@H](C)NC(=O)[C@@H](NC(C)=O)[C@@H](C)O)C(=O)N[C@@H](CO)C(=O)N[C@H](C(=O)NCC(N)=O)[C@@H](C)O (stereo partly shown) [Compound 10] (Ac-TARK(ξGly(tetradecyl))STG-NH2; N-terminus and C-terminus assumed)
Substrate properties / hydrolysis by HDAC11 (HDAC11 [2]): no single recognisable peak is present at the expected time; also recorded: not able to hydrolyze
